Measurements published in US11654136B2, “Phosphoinositide 3-kinase inhibitor with a zinc binding moiety” (Curis, Inc., priority 2011, dated 2023).

How the values were obtained:
[1] = system: HDACs (HeLa cell nuclear extracts); assay: HDAC activity assay (Biomol Color de Lys); assay type: biochemical
Experimental: HDAC inhibitory activity was assessed using the Biomol Color de Lys system (AK-500, Biomol, Plymouth Meeting, Pa.). Briefly, HeLa cell nuclear extracts were used as a source of HDACs. Different concentrations of test compounds were serially diluted in dimethylsulfoxide (DMSO) and added to HeLa cell nuclear extracts in the presence of a colorimetric artificial substrate. Final assay condition contained 50 mM Tris/C1, pH 8.0, 137 mM NaCl, 2.7 mM KCl and 1 mM MgCl2. Reactions were carried in room temperature (25° C.) for 1 hour before addition of developer for termination. Relative enzyme activity was measured in the WALLAC Victor II 1420 microplate reader as fluorescence intensity (excitation: 350-380 nm; emission: 440-460 nm). Data were analyzed using GraphPad Prism (v4.0a) with a sigmoidal dose response curve fitting for IC50 calculation.

[2] = system: Daudi (non-Hodgkin's lymphoma cell line) xenograft tumors; assay: Daudi xenograft tumor model; assay type: in vivo
Experimental: (§1) SU-DHL4 (diffuse large B-cell lymphoma cell line), H2122 (human NSCLC cell line), Daudi (non-Hodgkin's lymphoma cell line), and OPM2 (multiple myeloma tumor cell line) cells were implanted into either nude or Scid (severe […] immune-deficient) mice. […]. […] The control groups were treated with vehicle using the same dosing schedule as the corresponding active group.
(§2) In another study, the Daudi tumor group was dosed at 50 mg/Kg twice a day for five days per week. […] The SU-DHL4 tumor group was dosed at 100 mg/Kg orally or 50 mg/Kg intravenously.
(§3) Tumors were measured during the study period with an electronic caliper, and body weights were measured twice a week. The following formula was used to calculate the tumor volume: […] Percentage of tumor volume change was used to describe compound activity over the treatment period.

[3] = Daudi xenograft tumor model; assay type: in vivo; settings: Scid, mouse, in vivo; oral; Daudi model; read-out: maximum tolerated dose (MTD)
Experimental: as §1, §2, §3

[4] = system: PI3K-AKT-mTOR pathway, RAF-MEK-ERK pathways, RTK protein levels, p53 and p21; assay: Pharmacodynamics, Western blots of Daudi tumor tissue extracts; assay type: in vivo, Scid mice; settings: single dose 25, 50 and 100 mg/kg; Daudi tumors
Experimental: Protein was extracted from tumor tissues using a Tissuelyser (Qiagen, Valencia, Calif.) according to the manufacturer's instructions. 30 ug of protein was routinely used for WB analysis as described above. Cell lysates were resolved on NuPAGE Novex 4-12% Bis-Tris gels (Invitrogen) and transferred to nitrocellulose membranes (Bio-Rad Laboratories, Hercules, Calif.). The blots were probed with various primary antibodies overnight at 4° C. GAPDH (glyceraldehyde 3-phosphate dehydrogenase, 1:30,000, Abcam, Cambridge, Mass.) was used as an internal control for each assay. Membranes were then incubated with infrared labeled secondary antibodies (1:10000) conjugated-IR Dye-800 (Rockland Immunochemicals, Inc. Gilbertsville, Pa.) or conjugated-Alexa 680 (Invitrogen). Membranes were imaged with the Odyssey Infrared Imaging System (Li-Cor Biotechnology, Lincoln, Nebr.).

[5] = system: p-STAT3 (Y-705) and p-Src; assay: Western blot in RPMI-8226 myeloma cells; assay type: cell-based; settings: 1 μM, 16 h
[6] = system: Daudi human Burkitt's lymphoma xenograft; assay: Comparison with CAL-101 in the Daudi xenograft tumor model; assay type: in vivo, SCID beige mice; settings: 100 mg/kg Qd (Mon-Fri), PO; 18 days
Experimental: Female SCID beige mice (CD-1 Beige SCID) at 6-8 weeks of age were housed in ventilated micro-isolator cages in a controlled climate, fed with sterile high-fat diet (Problab-RMH 2000 ad libitum and provided with sterilized water. All housing and supplies for SCID beige mice are disposable, and purchased irradiated from Innovive prior to use. Mice were inspected daily including weekends/holidays by trained animal facility personnel and investigators. All animal procedures were performed under sterile conditions in a biosafety cabinet (for injections) or laminar flow hood (for animal husbandry and non-invasive procedures).
Daudi human Burkitt's lymphoma cells were originally obtained from a human Burkitt's lymphoma patient. […] The implanted mice were monitored for general health and tumor development daily.
Tumors were detectable about two weeks following implantation. Tumor size was measured with a caliper. […]
During each animal study, tumors were measured with calipers, tumor size determined using the above mentioned formula, and tumor size changes in percentage calculated. Mouse body weights were measured with a scale twice per week. […] T/C values were calculated using the following formula: % T/C=100×ΔT/ΔC if ΔT>0. […]
Tumor sizes and body weights were measured again on the last day of the study.

## COc1ccc(-c2nc(N3CCOCC3)c3sc(CN(C)c4ncc(C(=O)NO)cn4)cc3n2)cn1 [Compound 1, N-hydroxy-2-(((2-(6-methoxypyridin-3-yl)-4-morpholinothieno[3,2-d]pyrimidin-6-yl)methyl)(methyl)amino)pyrimidine-5-carboxamide]
[1]
  IC50: < 100 nM
[2]; oral 50 mg/Kg twice a day, five days per week
  Tumor growth: efficacious
[2]; oral 100 mg/Kg, each treatment at its MTD
  Antitumor activity compared with GDC-0941, vorinostat and their combination: more efficacious than vorinostat, GDC-0941, or a combination of both
[2]; oral 25, 50 or 100 mg/Kg five day per week
  Tumor growth versus dose: inhibited Daudi tumor growth in a dose-dependent manner
[3]
  MTD: 100 mg/kg
[4]
  Pharmacodynamic markers in tumor tissue (Western blots): inhibits the PI3K-AKT-mTOR pathway, suppresses the RAF-MEK-ERK pathways, downregulates RTK protein levels and up-regulates tumor suppressor p53 and p21 levels
[5]
  p-STAT3 (Y-705) and p-Src: inhibited p-STAT3 (Y-705) and p-Src
[6]
  Tumor growth: significantly reduced tumor growth compared to the CAL-101 and control groups
